Patent publication US8361998B2, “Compounds and their use as IKACh blockers” (AstraZeneca AB, priority 2010, dated 2013)

biological target: T1, human cardiac ion channel proteins hKir3.1/Kir3.4 (Homo sapiens, UniProt P48544+P48549); experiment: Atomic Absorption Screening (AAS) Rb efflux assay of hKir3.1/Kir3.4 block, carbachol/high K+ stimulated, 10-pt or 7-pt CR; assay type: cell-based; conditions: 7-pt CR (0.037 to 27 μmol/L), AAS Rb efflux, CHO-K1 cells expressing hKir3.1/Kir3.4; mean of >3 replicates; read-out: IKACh IC50 7-pt CR, AAS
T1 construct: expressed in transfected cells
T1 sequence (P48549 1-501): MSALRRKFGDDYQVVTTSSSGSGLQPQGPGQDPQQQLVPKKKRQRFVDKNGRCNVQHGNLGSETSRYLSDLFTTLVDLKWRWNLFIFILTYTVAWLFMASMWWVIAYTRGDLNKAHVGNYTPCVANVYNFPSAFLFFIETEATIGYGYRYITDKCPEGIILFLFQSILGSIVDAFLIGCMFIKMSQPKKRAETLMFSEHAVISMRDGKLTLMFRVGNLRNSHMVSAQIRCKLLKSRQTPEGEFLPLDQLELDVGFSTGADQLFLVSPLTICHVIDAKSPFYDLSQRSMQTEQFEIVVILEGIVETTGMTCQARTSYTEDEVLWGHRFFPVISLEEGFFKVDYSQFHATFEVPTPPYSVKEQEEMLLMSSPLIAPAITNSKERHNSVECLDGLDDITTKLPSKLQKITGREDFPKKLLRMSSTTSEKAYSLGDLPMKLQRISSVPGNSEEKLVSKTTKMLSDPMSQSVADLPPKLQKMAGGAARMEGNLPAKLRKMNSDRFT
T1 sequence (P48544 1-419): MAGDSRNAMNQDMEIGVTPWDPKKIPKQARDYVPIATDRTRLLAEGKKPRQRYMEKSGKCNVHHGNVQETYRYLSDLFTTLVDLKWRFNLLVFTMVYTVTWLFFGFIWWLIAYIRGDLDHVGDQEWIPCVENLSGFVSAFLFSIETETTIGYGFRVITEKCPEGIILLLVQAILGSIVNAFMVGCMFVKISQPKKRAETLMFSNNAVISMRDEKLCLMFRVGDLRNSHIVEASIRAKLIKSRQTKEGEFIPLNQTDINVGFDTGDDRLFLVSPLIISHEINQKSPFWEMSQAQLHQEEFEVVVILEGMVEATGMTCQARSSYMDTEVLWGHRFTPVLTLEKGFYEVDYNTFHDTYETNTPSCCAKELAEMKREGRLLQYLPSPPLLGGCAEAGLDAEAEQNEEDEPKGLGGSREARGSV
In short: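 Mean IC50s derive from >4 replicates over 0.003–67 μmol/L (10-point) or >3 replicates over 0.037–27 μmol/L (7-point), both threefold steps. Rb-loaded (3 h, 37° C) CHO-K1 cells stably expressing hKir3.1/Kir3.4 saw compound for 5 min at RT before 10-min channel opening by carbachol 10 μM/KCl 20 mM final. Released Rb was quantified by atomic absorption.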

| SMILES | IC50 [µM] |
| --- | --- |
| CC(C)[C@@H](CN1CCCC1)N(C)C(=O)c1cccc(OC(F)(F)F)c1 [Example 16.16, (S)—N-Methyl-N-(3-methyl-1-(pyrrolidin-1-yl)butan-2-yl)-3-(tri-fluoromethoxy)benzamide] | 2.6 |
| CC(C)[C@@H](CN1CCCC1)N(C)C(=O)c1cccc(Cl)c1F [Example 16.17, (S)-3-Chloro-2-fluoro-N-methyl-N-(3-methyl-1-(pyrrolidin-1-yl)butan-2-yl)benzamide] | 1.2 |
| CC(C)c1ccc(C(=O)N(C)[C@H](CN2CCCC2)C(C)C)cc1 [Example 16.49, (S)-4-Isopropyl-N-methyl-N-(3-methyl-1-(pyrrolidin-1-yl)butan-2-yl)benzamide] | 7.1 |
| CC(C)[C@@H](CN1CCCC1)N(C)C(=O)c1ccc(Br)c(F)c1 [Example 16.52, (S)-4-Bromo-3-fluoro-N-methyl-N-(3-methyl-1-(pyrrolidin-1-yl)butan-2-yl)benzamide] | 3.2 |
| CC(C)[C@@H](CN1CCCC1)N(C)C(=O)c1ccc(Cl)cc1Cl [Example 16.47, (S)-2,4-Dichloro-N-methyl-N-(3-methyl-1-(pyrrolidin-1-yl)butan-2-yl)benzamide] | 0.56 |
| CC(C)[C@@H](CN1CCCC1)N(C)C(=O)c1ccc(Cl)c(Cl)c1 [Example 16.51, (S)-3,4-Dichloro-N-methyl-N-(3-methyl-1-(pyrrolidin-1-yl)butan-2-yl)benzamide] | 0.46 |
| Cc1cc(C(=O)N(C)[C@H](CN2CCCC2)C(C)C)ccc1Cl [Example 16.50, (S)-4-Chloro-N,3-dimethyl-N-(3-methyl-1-(pyrrolidin-1-yl)butan-2-yl)benzamide] | 0.42 |
| Cc1ccc(C(=O)N(C)[C@H](CN2CC[C@H](O)C2)C(C)C)cc1 [Example 16.43, N-[(1S)-1-{[(3S)-3-Hydroxypyrrolidin-1-yl]methyl}-2-methylpropyl]-N,4-dimethylbenzamide] | 5.5 |

same assay, conditions: 10-pt CR (0.003 to 67 μmol/L), AAS Rb efflux, CHO-K1 cells expressing hKir3.1/Kir3.4; mean of >4 replicates; read-out: IKACh IC50 10-pt CR, AAS

| SMILES | IC50 [µM] |
| --- | --- |
| CC(C)[C@@H](CN1CCC1)N(C)C(=O)c1ccc(F)c(Cl)c1 [Example 1.12, (S)-N-(1-(Azetidin-1-yl)-3-methylbutan-2-yl)-3-chloro-4-fluoro-N-methylbenzamide] | 2.9 |
| CCC[C@H](CN1CC(O)C1)N(C)C(=O)c1ccc(Cl)cc1 [Example 37, 4-Chloro-N-[(2R)-1-(3-hydroxyazetidin-1-yl)pentan-2-yl]-N-methylbenzamide] | 9.7 |
| Cc1cc(C(=O)N(C)[C@@H](CN2CCC(O)CC2)C(C)C)ccc1F [Example 25, (R)-4-Fluoro-N-(1-(4-hydroxypiperidin-1-yl)-3-methylbutan-2-yl)-N,3-dimethylbenzamide] | 17 |
| CC[C@@H](CN1CCCC1)N(C)C(=O)c1ccc(Cl)c(Cl)c1 [Example 17.2, (S)-3,4-Dichloro-N-methyl-N-(1-(pyrrolidin-1-yl)butan-2-yl)benzamide] | 1.4 |
| CC(C)[C@@H](CN1CC(F)C1)N(C)C(=O)c1ccc(Br)cc1 [Example 1.7, (S)-4-Bromo-N-(1-(3-fluoroazetidin-1-yl)-3-methylbutan-2-yl)-N-methylbenzamide] | 5 |
| Cc1cc(C(=O)N(C)[C@H](CN2C[C@H](O)[C@@H](O)C2)C(C)C)ccc1Cl [Example 8.13, 4-Chloro-N-((S)-1-((3S,4S)-3,4-dihydroxypyrrolidin-1-yl)-3-methylbutan-2-yl)-N,3-dimethylbenzamide] | 1.9 |
| CCC[C@@H](CN1CC(O)C1)N(C)C(=O)c1ccc(C)c(C)c1 [Example 23, (S)—N-(1-(3-Hydroxyazetidin-1-yl)pentan-2-yl)-N,3,4-trimethylbenzamide] | 0.44 |
| Cc1cc(C(=O)N(C)[C@H](CN2C[C@H](O)[C@@H](O)C2)C(C)C)ccc1F [Example 8.12, N-((S)-1-((3S,4S)-3,4-Dihydroxypyrrolidin-1-yl)-3-methylbutan-2-yl)-4-fluoro-N,3-dimethylbenzamide] | 4.3 |
| CCC[C@@H](CN1CC(O)C1)N(C)C(=O)c1ccc(C#N)cc1 [Example 8.9, (S)-4-Cyano-N-(1-(3-hydroxyazetidin-1-yl)pentan-2-yl)-N-methylbenzamide] | 8.6 |
| CC(C)c1ccc(C(=O)N(C)[C@H](CN2CCCC2)C(C)C)cc1 [Example 16.49, (S)-4-Isopropyl-N-methyl-N-(3-methyl-1-(pyrrolidin-1-yl)butan-2-yl)benzamide] | 9.7 |
| CCN(C(=O)c1ccc(F)c(C)c1)[C@H](CN1CCCC1)C(C)C [Example 15.2, (S)-N-Ethyl-4-fluoro-3-methyl-N-(3-methyl-1-(pyrrolidin-1-yl)butan-2-yl)benzamide] | 18 |
| CC(C)[C@@H](CN1CC(C)(O)C1)N(C)C(=O)c1ccc(F)c(C(F)(F)F)c1 [Example 9.8, (S)-4-Fluoro-N-(1-(3-hydroxy-3-methylazetidin-1-yl)-3-methyl-butan-2-yl)-N-methyl-3-(trifluoromethyl)benzamide] | 5.3 |
| COCCN(C(=O)c1ccc(Cl)cc1)[C@H](CN1CCCC1)C(C)C [Example 15.4, (S)-4-Chloro-N-(2-methoxyethyl)-N-(3-methyl-1-(pyrrolidin-1-yl)butan-2-yl)benzamide] | 5.7 |
| COC1CCN(C[C@H](C(C)C)N(C)C(=O)c2ccc(Cl)cc2)CC1 [Example 3.7, (S)-4-Chloro-N-(1-(4-methoxypiperidin-1-yl)-3-methylbutan-2-yl)-N-methylbenzamide] | 1.3 |
| CCC[C@@H](CN1CCC1)N(C)C(=O)c1ccc(Cl)cc1Cl [Example 1.1, (S)—N-(1-(Azetidin-1-yl)pentan-2-yl)-2,4-dichloro-N-methylbenzamide] | 2.3 |

The remaining lines, values ahead:

| IC50 [µM] | SMILES |
| --- | --- |
| 1.1 | COc1ccc(C(=O)N(C)[C@H](CN2CC(O)C2)C2CCC2)c(F)c1 [Example 39.5, (S)—N-(1-Cyclobutyl-2-(3-hydroxyazetidin-1-yl)ethyl)-2-fluoro-4-methoxy-N-methylbenzamide] |
| 12 | CC[C@H](C)[C@@H](CN1CC(O)C1)N(C)C(=O)c1ccc(C#N)cc1 [Example 29.5, 4-Cyano-N-((2S,3S)-1-(3-hydroxyazetidin-1-yl)-3-methylpentan-2-yl)-N-methylbenzamide] |
| 8.7 | CN(C(=O)c1ccc(OC(F)F)cc1)[C@@H](CN1CC(O)C1)C1CCC1 [Example 35.3, N-[(1R)-1-Cyclobutyl-2-(3-hydroxyazetidin-1-yl)ethyl]-4-(difluoromethoxy)-N-methylbenzamide] |
| 4.8 | CN(C(=O)c1cccc(Cl)c1F)[C@@H](CN1CC(O)C1)C1CCC1 [Example 35.11, 3-Chloro-N-[(1R)-1-cyclobutyl-2-(3-hydroxyazetidin-1-yl)ethyl]-2-fluoro-N-methylbenzamide] |
| 0.58 | COc1ccc(C(=O)N(C)C(CN2CC(O)C2)C2CCCC2)cc1 (single isomer, unassigned) [32.2, isomer 1] |
| 9.1 | CCC[C@@H](CN1C[C@H](O)[C@H]1C)N(C)C(=O)c1ccc(F)cc1 (relative stereo) [Example 43.2, 4-Fluoro-N—((S)-1-((2R*,3S*)-3-hydroxy-2-methylazetidin-1-yl)pentan-2-yl)-N-methylbenzamide] |
| 15 | CC(C)[C@@H](CN1CCCC(F)(F)C1)N(C)C(=O)c1ccc(F)c(C(F)(F)F)c1 [Example 16.2, (S)—N-(1-(3,3-Difluoropiperidin-1-yl)-3-methylbutan-2-yl)-4-fluoro-N-methyl-3-(trifluoromethyl)benzamide] |
| 0.43 | CCC[C@@H](CN1CC(OCC)C1)N(C)C(=O)c1ccc(Cl)cc1 [Example 31.1, (S)-4-Chloro-N-(1-(3-ethoxyazetidin-1-yl)pentan-2-yl)-N-methylbenzamide] |
| 0.77 | CC(C)C[C@@H](CN1CC(O)C1)N(C)C(=O)c1cccc(C(F)F)c1 [Example 38.4, 3-(Difluoromethyl)-N-[(2S)-1-(3-hydroxyazetidin-1-yl)-4-methylpentan-2-yl]-N-methylbenzamide] |

same assay, conditions: printed as IC50 >67 μM in the 10-pt CR assay or IC50 >27 μM in the 7-pt CR assay; assay format per compound not stated; read-out: IC50

| SMILES | IC50 [µM] |
| --- | --- |
| Cc1cc(F)ccc1C(=O)N(C)[C@H](CN1CCCC1)C(C)(C)C [(S)-N-(3,3-Dimethyl-1-(pyrrolidin-1-yl)butan-2-yl)-4-fluoro-N,2-dimethylbenzamide] | > 27 |
| Cc1cc(C(=O)N(C)[C@H](CN2CCC(F)(F)CC2)C(C)C)ccc1F [(S)-N-(1-(4,4-Difluoropiperidin-1-yl)-3-methylbutan-2-yl)-4-fluoro-N,3-dimethylbenzamide] | > 27 |
